Test results taken from ChEMBL document CHEMBL5257025, “Artemisinin-Derived Dimers: Potent Antimalarial and Anticancer Agents” (J Med Chem, 2016).
Blank lines part the entries; values can stand above or below the compound they belong to.

Key:
[1] = system: BT-549; assay: Antiproliferative activity against human BT-549 cells assessed as cell growth inhibition measured after 72 hrs by SRB assay; format: functional, cell-based; conditions: BT-549, 72 h
[2] = system: Plasmodium falciparum; assay: microbe, parasite or virus in culture; conditions: Dd2
Description: Antiplasmodial activity against Plasmodium falciparum Dd2 assessed as inhibition of parasitic growth

[3] = system: HL-60; assay: Antiproliferative activity against human HL-60 cells assessed as cell growth inhibition measured after 48 hrs by SRB assay; format: functional, cell-based; conditions: HL-60, 48 h
[4] = system: Plasmodium falciparum; assay: Antimalarial activity against Plasmodium falciparum K1 assessed as inhibition of malarial growth; format: functional, organism-based
[5] = system: Plasmodium falciparum; assay: Antimalarial activity against Plasmodium falciparum NF54 assessed as reduction in cell growth; format: functional, organism-based
[6] = system: Plasmodium falciparum; assay: Antimalarial activity against Plasmodium falciparum W2 assessed as reduction in malarial growth; format: functional, organism-based
[7] = Cytotoxicity against African green monkey Vero cells; format: toxicity, cell-based; conditions: chlorocebus sabaeus, read-out: TC50 (the source's name)
[8] = system: CAKI-2; assay: Antiproliferative activity against human CAKI-2 cells assessed as inhibition of cell growth; format: functional, cell-based
[9] = system: SK-OV-3; assay: Antiproliferative activity against human SK-OV-3 cells assessed as reduction in cell viability incubated for 48 hrs by MTT assay; format: functional, cell-based; conditions: SK-OV-3, 48 h
[10] = system: KB; assay: Antiproliferative activity against human KB cells assessed as reduction in cell viability incubated for 48 hrs by MTT assay; format: functional, cell-based
[11] = system: ADR5000 cell line; assay: Antiproliferative activity against human CEM/ADR5000 cells assessed as reduction in cell viability incubated for 48 hrs by MTT assay; format: functional, cell-based; conditions: ADR5000, 48 h
[12] = Cytotoxicity against pig LLC-PK1 cells; format: toxicity, cell-based, Sus scrofa; conditions: read-out: TC50 (the source's name)
[13] = system: HCT-15; assay: cells; conditions: Homo sapiens, HCT-15, 48 h
Description: Antiproliferative activity against human HCT-15 cells assessed as reduction in cell viability incubated for 48 hrs by MTT assay

[14] = system: SK-MEL; assay: Antiproliferative activity against human SK-MEL cells assessed as reduction in cell viability incubated for 48 hrs by MTT assay; format: functional, cell-based
[15] = system: SK-MEL; assay: Antiproliferative activity against human SK-MEL cells assessed as reduction in cell growth inhibition; format: functional, cell-based
[16] = system: XF498; assay: Antiproliferative activity against human XF498 cells assessed as reduction in cell viability incubated for 48 hrs by MTT assay; format: functional, cell-based; conditions: XF498, 48 h
[17] = system: SK-MEL-2; assay: Antiproliferative activity against human SK-MEL-2 cells assessed as reduction in cell viability incubated for 48 hrs by MTT assay; format: functional, cell-based; conditions: SK-MEL-2, 48 h
[18] = system: HL-60; assay: Antiproliferative activity against human HL-60 cells assessed as reduction in cell viability incubated for 48 hrs by MTT assay; format: functional, cell-based; conditions: HL-60, 48 h
[19] = system: A549; assay: cells; conditions: Homo sapiens, A549, 48 h
[20] = system: BT-549; assay: Antiproliferative activity against human BT-549 cells assessed as reduction in cell viability incubated for 48 hrs by MTT assay; format: functional, cell-based; conditions: BT-549, 48 h
[21] = system: SK-VLB; assay: Antiproliferative activity against human SK-VLB cells assessed as reduction in cell viability incubated for 48 hrs by MTT assay; format: functional, cell-based
[22] = system: Jurkat; assay: Antiproliferative activity against human Jurkat cells assessed as reduction in cell viability incubated for 48 hrs by MTT assay; format: functional, cell-based
[23] = system: UACC-62; assay: Antiproliferative activity against human UACC-62 cells assessed as reduction in cell viability incubated for 48 hrs by SRB assay; format: functional, cell-based; conditions: UACC-62, 48 h
[24] = system: MCF7; assay: Antiproliferative activity against human MCF7 cells assessed as reduction in cell viability measured after 48 hrs by SRB assay; format: functional, cell-based; conditions: MCF7, 48 h
[25] = system: TK-10; assay: Antiproliferative activity against human TK-10 cells assessed as reduction in cell viability incubated for 48 hrs by SRB assay; format: functional, cell-based; conditions: TK-10, 48 h

Compound: C[C@@H]1CC[C@H]2[C@@H](C)C(=O)O[C@@H]3O[C@@]4(C)CC[C@@H]1[C@]32OO4 [ARTEMISININ]
IC50 [1]: 40000 nM | IC50 [2]: 6.9 nM | IC50 [3]: 40000 nM | IC50 [4]: 7.81 nM | IC50 [5]: 6.9 nM | IC50 [6]: 6.6 nM | CC50 [7]: > 1690 nM | IC50 [8]: 40000 nM

IC50 [9]: 9 nM | IC50 [10]: 9 nM | IC50 [13]: 9 nM | IC50 [14]: 9 nM | IC50 [15]: 170 nM | IC50 [17]: 9 nM | IC50 [18]: 9 nM | IC50 [19]: 9 nM | IC50 [20]: 9 nM | IC50 [21]: 9 nM | IC50 [22]: 9 nM
Compound: COc1cccc2c1C(=O)c1c(O)c3c(c(O)c1C2=O)C[C@@](O)(C(=O)CO)C[C@@H]3O[C@H]1C[C@H](N)[C@H](O)[C@H](C)O1 [DOXORUBICIN]
IC50 [11]: 9 nM | CC50 [12]: 1290 nM | IC50 [16]: 9 nM

IC50 [24]: 830 nM
Compound: COc1cc([C@@H]2c3cc4c(cc3[C@@H](O[C@@H]3O[C@@H]5CO[C@@H](C)O[C@H]5[C@H](O)[C@H]3O)[C@H]3COC(=O)[C@H]23)OCO4)cc(OC)c1O [ETOPOSIDE]
IC50 [23]: 830 nM | IC50 [25]: 830 nM
